These results are taken from patent US4202824A, “Physiologically active derivatives of esterastin” (Zaidan Hojin Biseibutsu Kagaku Kenkyu Kai, priority 1978, dated 1980).

Values after ≈ are worked out from the molar mass of the structure shown.

One data set relates to cholesterol esterase. Put plainly: cholesterol esterase inhibition, cholesterol acetate as substrate, liberated cholesterol determined. In kind it is biochemical. As to conditions: 37° C., 3 minutes; for cholesterol esterase-inhibiting activity relative to the parent esterastin: printed as 3-fold and 20 times higher. The text has this:
Furthermore, the new compounds of this invention all have advantageously a remarkably higher activity of inhibiting cholesterol esterase than the parent esterastin.

A further data set has as its target pig pancreas esterase. Put plainly: esterase-inhibiting activity, crude pig pancreas lipase preparation with p-nitrophenyl acetate as substrate. In kind it is biochemical. The conditions noted are these: for ID50, dose giving 50% inhibition to esterase: p-nitrophenyl acetate substrate, pH 7.0, 20° C., 30 minutes, pure products; for IC50: pig pancreas esterase, p-nitrophenyl acetate as the substrate, read-out: level giving 50% inhibition of the esterase. The procedure:
Thus, a commercially available, crude lipase preparation obtained from pig pancreas is dissolved to a concentration of 0.5% (by weight) in a 0.05M phosphate buffered solution (pH 7.0) containing 0.2% "Triton X-100" (a trade name of an emulsifier consisting of a polyethyleneglycol alkylphenylether, a product of Rohm & Haas Co., U.S.A.). This lipase solution (0.03 ml), 2.92 ml of 0.05 M phosphate buffered solution (pH 7.0) and 0.025 ml of a solution containing a sample of the new compound to be assayed are mixed together, and the resulting mixture (2.975 ml) is warmed at 20° C. for 3 minutes and then admixed with 0.025 ml of a solution containing 10 mg/ml of p-nitrophenyl acetate in methanol to start the reaction of p-nitrophenyl acetate with lipase. After the enzymatic reaction is effected at 20° C. for 30 minutes, absorbance (a) at 400 nm of the resulting reaction solution is measured. On the other hand, absorbance (b) at 400 nm of a control reaction solution obtained from the blank test using the 0.05M phosphate buffered solution not containing the new compound to be assayed is measured in the same way as above. Degree (%) of inhibition to esterase is calculated according to the following equation: [formula]

In data set [1] the test system is cells forming humoral antibody. As to conditions: background statement; cited from earlier work.
The subject of data set [2] is inflammation caused by carrageenin. As to conditions: background statement; cited from earlier work.
A short description of a further data set: storage stability. The format is physicochemical. From the text:
In contrast, the new compound, tetrahydroesterastin is fairly stable so that it can be stored in the form of a powder as such for a long time of 1 year or more without lowering its activity.

A further data set deals with cell-mediated immunity. As to conditions: background statement; cited from earlier work.
Data set [3] has as its system esterase of pig pancrease. The conditions noted are these: cited from earlier work.

Regarding `CCCCCC=CCC=CCC(O)CC1OC(=O)C1CCCCCC` (centres unmarked) [3,5-di-hydroxy-2-hexylhexadeca-7,10-dienoic 1,3-lactone], in the data set on cholesterol esterase, the “cholesterol esterase-inhibiting activity relative to tetrahydroesterastin” value is “about 7 times” and the “cholesterol esterase-inhibiting activity relative to the parent esterastin” value was “about 20 fold”. Moreover, on pig pancreas esterase, the “ID50, dose giving 50% inhibition to esterase” value stood at 7 ng/mL (≈ 0.02 µM) and the IC50 turned out to be 20 nM.

Consider `CCCCCCCCCCCC(O)CC1OC(=O)C1CCCCCC` (centres unmarked) [3,5-di-hydroxy-2-hexylhexadecanoic 1,3-lactone], for which, at pig pancreas esterase, the “ID50, dose giving 50% inhibition to esterase” value stood at 9 ng/mL (≈ 0.0254 µM) and the IC50 worked out at 25 nM.

For `CCCCCC=CCC=CCC(CC1OC(=O)C1CCCCCC)OC(=O)C(CC(N)=O)NC(C)=O` (centres unmarked) [esterastin], in data set [1], the “effect on number of cells forming humoral antibody” value is recorded as “reduce the number of the cells forming humoral antibody”. Moreover, the “effect on inflammation caused by carrageenin” value in data set [2] is recorded as “inhibits the inflammation caused by carrageenin”. Moreover, the “stability on storage (in words)” value in “storage stability” was “fairly unstable”. In addition, the “effect on cell-mediated immunity” value with cell-mediated immunity was “suppress the cell-mediated immunity”. Moreover, the “ID50, dose giving 50% inhibition to esterase” value on pig pancreas esterase was found to be 0.2 ng/mL (≈ 0.000395 µM).

Turning to `CCOP(=O)(OCC)Oc1ccc([N+](=O)[O-])cc1` [paradoxon], the “inhibition of the esterase of pig pancreas (in words)” value in data set [3] was “inhibit the esterase”.

With `CCCCCCCCCCCC(CC1OC(=O)C1CCCCCC)OC(=O)C(CC(N)=O)NC(C)=O` (centres unmarked) [tetrahydroesterastin], in “storage stability”, the “stability on storage (in words)” value was “fairly stable”. The “storage time as powder without lowering its activity” value in the data set “storage stability” (stored in the form of a powder as such) is recorded as not below 1 year. In addition, the “cholesterol esterase-inhibiting activity relative to the parent esterastin” value in the data set with cholesterol esterase is listed as “about 3 fold”. Also, on pig pancreas esterase, the “ID50, dose giving 50% inhibition to esterase” value was found to be 3.3 ng/mL (≈ 0.00646 µM) and the IC50 was determined as 6.4 nM.
